Measured values from publication PMC4585333, “Novel Regulator of Acylated Ghrelin, CF801, Reduces Weight Gain, Rebound Feeding after a Fast, and Adiposity in Mice” (Frontiers in Endocrinology, 2015).
Entries after “also recorded” stand apart in the source; their conditions may differ.

Key:
human GOAT (hGOAT) = molecular target: T1, human GOAT (hGOAT) (Homo sapiens, UniProt Q96T53); experiment: Fluorescence-based GOAT activity assay, human GOAT; assay type: biochemical; conditions: concentrations up to 10 μM; Sf9 membranes, 1.5 μM GSSFLCAcDan, 500 μM octanoyl-CoA, 30 min pre-incubation, 1 h room temperature, pH 7.0, HPLC fluorescence, triplicate; F(3,8) = 1.251, p > 0.05
T1 construct: made in house; host or cells: Sf9 insect cells (membrane fraction)
T1 sequence (Q96T53 1-435): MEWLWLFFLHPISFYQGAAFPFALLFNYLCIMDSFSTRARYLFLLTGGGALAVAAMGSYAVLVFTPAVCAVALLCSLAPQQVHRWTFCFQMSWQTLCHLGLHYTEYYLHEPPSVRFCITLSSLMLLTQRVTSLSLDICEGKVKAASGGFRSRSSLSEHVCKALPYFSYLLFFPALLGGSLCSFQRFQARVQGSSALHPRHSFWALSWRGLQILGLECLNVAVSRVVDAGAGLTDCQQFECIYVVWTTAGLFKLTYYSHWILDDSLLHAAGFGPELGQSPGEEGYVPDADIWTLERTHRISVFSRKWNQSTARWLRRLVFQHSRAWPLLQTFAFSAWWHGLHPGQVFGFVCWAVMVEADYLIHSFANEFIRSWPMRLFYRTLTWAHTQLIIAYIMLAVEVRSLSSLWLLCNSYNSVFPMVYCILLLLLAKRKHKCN
Source text: The effects of CF801 on GOAT activity were examined using a previously validated fluorescence-based assay, and in comparison with octanoyl-(Dap3)-ghrelin (1–5)–NH2, a well characterized GOAT inhibitor ([56], [63]). In this assay, membrane fractions from Sf9 insect cells were transfected to express either human (hGOAT) or mouse GOAT (mGOAT). Membranes fractions were thawed on ice and passed through an 18-gage needle 10 times enriched using a previously described method ([63]). […] Assays were analyzed by reverse phase HPLC with fluorescence detection. […] The trials were run in triplicate, with the % activity calculated as the integrated fluorescence intensity of the octanoylated product in the CF801 or octanoyl-(Dap3)-ghrelin (1–5)–NH2 run normalized by the same quantity for the vehicle-only reaction. […]
Figure 3 Percent activity of human GOAT (A) and mouse GOAT (B) (obtained from membrane fractions from Sf9 cells expressing hGOAT and mGOAT, resepectively) when exposed to CF801 and octanoyl-(Dap3)-ghrelin (1–5)–NH2 using a fluorescence-based microsomal assay. GSSFLCAcDan was used as an acylation target with fluorescence measured by reverse phase HPLC with fluorescence detection. […] All values are expressed as mean ± SEM. ***p < 0.001 compared to vehicle control.

plasma acylated ghrelin = experiment: Plasma acylated ghrelin in fasted mice (ELISA); assay type: in vivo, male C57BL/6J mice
Method: In general, male C57BL/6J mice (The Jackson Laboratory, Bar Harbor, ME, USA) weighing 20–25 g were used as experimental subjects. Throughout the duration of the studies, mice were housed under standard laboratory conditions and received ad libitum access to standard laboratory mouse chow and tap water. Lights in the facility were set to go on and off at 12 h intervals with the lights going on at 7:00 a.m. In some experiments, mice also had ad libitum access to a high-fat diet containing 60% caloric content from fat (TD 06414; Harlan Teklad, Indianapolis, IN, USA) in addition to regular chow to measure dietary preferences. All procedures were approved by the Carleton University Animal Care Committee and followed the guidelines of the Canadian Council on Animal Care.
Mice (n = 16) were singly housed and given free access to water and regular chow for a 4-day baseline period. After this, mice were assigned to one of three groups: vehicle (n = 5), CF801 low dose (n = 5; 11 μmol⋅kg^−1 – LD), or CF801 high dose (n = 6; 22 μmol⋅kg^−1 – HD). […] Food intake was then monitored every hour for 4 h to determine the effects of CF801 on rebound feeding. […]
Following the treatment or recovery periods, mice were killed by rapid decapitation and plasma and tissue samples were collected. […] Plasma acylated ghrelin for all animals was measured using an ELISA kit (Millipore).

GSAFLSPEHQRK KRRQRRR-NH2 [CF801]
hGOAT activity with CF801 (human GOAT (hGOAT)): no inhibition was seen; also recorded: no effect | plasma acylated ghrelin concentration, high dose (plasma acylated ghrelin; 22 μmol⋅kg^−1 i.p. once daily for 4 days, after fast, vs vehicle, p < 0.05 Fisher LSD): statistically significant; also recorded: reduced levels of plasma acylated ghrelin | plasma acylated ghrelin concentration, dose dependence (plasma acylated ghrelin; i.p. once daily for 4 days, 11 and 22 μmol⋅kg^−1, F(2,24) = 2.90, p < 0.05, partial eta^2 = 0.22): dose-dependent decrease in plasma ghrelin concentrations
